# Measured values published in ChEMBL document CHEMBL5465560, “Selectivity Literature for EUbOPEN Chemogenomic Library” (2024).
# What was measured:
# [1] = biological target: Tyrosine-protein kinase Fes/Fps (Homo sapiens) (UniProt P07332); conditions: at 10 µM
# Adenosine receptor A2a = Adenosine receptor A2a (Homo sapiens, UniProt P29274); assay: Selectivity interaction (Panel of kinases, GPCRs, ion channels and transporters (enzymatic assay)) EUB0000266bCl ADORA2A
# [2] = biological target: Dual specificity mitogen-activated protein kinase kinase 2 (Homo sapiens) (UniProt P36507); assay: Selectivity interaction (KinomeScan (DiscoverX)) EUB0000229b MAP2K2; conditions: at 10 µM
# Chain of Dual specificity mitogen-activated protein kinase kinase 2 (Homo sapiens) (P36507 whole entry): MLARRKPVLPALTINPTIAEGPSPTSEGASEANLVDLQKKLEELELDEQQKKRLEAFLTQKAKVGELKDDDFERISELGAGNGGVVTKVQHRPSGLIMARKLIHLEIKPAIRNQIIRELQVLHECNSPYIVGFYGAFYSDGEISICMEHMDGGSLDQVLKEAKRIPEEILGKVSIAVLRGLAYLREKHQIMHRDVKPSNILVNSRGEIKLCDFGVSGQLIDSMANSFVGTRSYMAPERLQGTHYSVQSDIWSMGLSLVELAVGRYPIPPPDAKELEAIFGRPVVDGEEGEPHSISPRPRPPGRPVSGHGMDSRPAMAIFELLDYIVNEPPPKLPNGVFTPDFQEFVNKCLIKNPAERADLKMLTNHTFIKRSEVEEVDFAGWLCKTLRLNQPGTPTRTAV
# [3] = biological target: Serine/threonine-protein kinase NLK (Homo sapiens, UniProt Q9UBE8); assay: Selectivity interaction (Competition-binding assay (DiscoverX)) EUB0000229b NLK
# Chain of Serine/threonine-protein kinase NLK (Q9UBE8 whole entry): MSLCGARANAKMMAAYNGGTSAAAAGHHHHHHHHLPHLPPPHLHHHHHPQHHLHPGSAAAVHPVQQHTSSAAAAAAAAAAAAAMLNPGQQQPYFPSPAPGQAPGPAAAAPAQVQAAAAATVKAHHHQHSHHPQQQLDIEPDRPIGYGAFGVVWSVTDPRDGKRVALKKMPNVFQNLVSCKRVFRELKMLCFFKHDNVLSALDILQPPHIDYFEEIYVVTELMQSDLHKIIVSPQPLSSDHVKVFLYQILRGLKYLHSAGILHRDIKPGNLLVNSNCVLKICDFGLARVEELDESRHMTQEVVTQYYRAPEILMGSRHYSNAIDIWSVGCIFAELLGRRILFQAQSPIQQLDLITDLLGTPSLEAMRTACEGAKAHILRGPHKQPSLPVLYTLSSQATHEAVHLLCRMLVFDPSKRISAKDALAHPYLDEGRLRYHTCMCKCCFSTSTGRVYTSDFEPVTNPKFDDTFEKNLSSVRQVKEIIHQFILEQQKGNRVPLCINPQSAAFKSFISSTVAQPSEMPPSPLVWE
# [4] = biological target: BDNF/NT-3 growth factors receptor (Homo sapiens) (UniProt Q16620); assay: Selectivity interaction (KinomeScan (DiscoverX)) EUB0001079a NTRK2; conditions: at 1 µM
# Chain of BDNF/NT-3 growth factors receptor (Homo sapiens) (Q16620 32-822 limits assumed): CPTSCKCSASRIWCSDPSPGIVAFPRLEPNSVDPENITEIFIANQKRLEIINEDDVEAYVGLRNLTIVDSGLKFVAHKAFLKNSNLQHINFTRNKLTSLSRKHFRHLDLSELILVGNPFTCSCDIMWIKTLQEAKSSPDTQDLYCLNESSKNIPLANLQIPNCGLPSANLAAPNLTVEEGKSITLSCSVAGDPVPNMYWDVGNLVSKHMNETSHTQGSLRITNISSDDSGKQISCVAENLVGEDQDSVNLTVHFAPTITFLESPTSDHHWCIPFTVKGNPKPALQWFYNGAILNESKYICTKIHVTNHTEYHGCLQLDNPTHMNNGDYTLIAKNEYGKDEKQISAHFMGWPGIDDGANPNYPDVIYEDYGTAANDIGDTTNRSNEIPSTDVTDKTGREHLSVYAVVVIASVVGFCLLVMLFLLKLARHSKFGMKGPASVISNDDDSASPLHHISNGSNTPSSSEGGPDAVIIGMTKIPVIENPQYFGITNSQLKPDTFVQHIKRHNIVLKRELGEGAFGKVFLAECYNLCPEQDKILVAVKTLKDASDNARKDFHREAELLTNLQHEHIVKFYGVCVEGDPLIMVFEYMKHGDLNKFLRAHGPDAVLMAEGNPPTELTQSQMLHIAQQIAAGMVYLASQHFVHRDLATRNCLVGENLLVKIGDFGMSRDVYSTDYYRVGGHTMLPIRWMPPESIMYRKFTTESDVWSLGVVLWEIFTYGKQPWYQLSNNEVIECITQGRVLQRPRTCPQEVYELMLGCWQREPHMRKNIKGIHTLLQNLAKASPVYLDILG
# [5] = biological target: Rho-associated protein kinase 1 (Homo sapiens) (UniProt Q13464); assay: Selectivity interaction (ProQinase) EUB0000171b ROCK1
# Chain of Rho-associated protein kinase 1 (Homo sapiens) (Q13464 2-1354 limits assumed): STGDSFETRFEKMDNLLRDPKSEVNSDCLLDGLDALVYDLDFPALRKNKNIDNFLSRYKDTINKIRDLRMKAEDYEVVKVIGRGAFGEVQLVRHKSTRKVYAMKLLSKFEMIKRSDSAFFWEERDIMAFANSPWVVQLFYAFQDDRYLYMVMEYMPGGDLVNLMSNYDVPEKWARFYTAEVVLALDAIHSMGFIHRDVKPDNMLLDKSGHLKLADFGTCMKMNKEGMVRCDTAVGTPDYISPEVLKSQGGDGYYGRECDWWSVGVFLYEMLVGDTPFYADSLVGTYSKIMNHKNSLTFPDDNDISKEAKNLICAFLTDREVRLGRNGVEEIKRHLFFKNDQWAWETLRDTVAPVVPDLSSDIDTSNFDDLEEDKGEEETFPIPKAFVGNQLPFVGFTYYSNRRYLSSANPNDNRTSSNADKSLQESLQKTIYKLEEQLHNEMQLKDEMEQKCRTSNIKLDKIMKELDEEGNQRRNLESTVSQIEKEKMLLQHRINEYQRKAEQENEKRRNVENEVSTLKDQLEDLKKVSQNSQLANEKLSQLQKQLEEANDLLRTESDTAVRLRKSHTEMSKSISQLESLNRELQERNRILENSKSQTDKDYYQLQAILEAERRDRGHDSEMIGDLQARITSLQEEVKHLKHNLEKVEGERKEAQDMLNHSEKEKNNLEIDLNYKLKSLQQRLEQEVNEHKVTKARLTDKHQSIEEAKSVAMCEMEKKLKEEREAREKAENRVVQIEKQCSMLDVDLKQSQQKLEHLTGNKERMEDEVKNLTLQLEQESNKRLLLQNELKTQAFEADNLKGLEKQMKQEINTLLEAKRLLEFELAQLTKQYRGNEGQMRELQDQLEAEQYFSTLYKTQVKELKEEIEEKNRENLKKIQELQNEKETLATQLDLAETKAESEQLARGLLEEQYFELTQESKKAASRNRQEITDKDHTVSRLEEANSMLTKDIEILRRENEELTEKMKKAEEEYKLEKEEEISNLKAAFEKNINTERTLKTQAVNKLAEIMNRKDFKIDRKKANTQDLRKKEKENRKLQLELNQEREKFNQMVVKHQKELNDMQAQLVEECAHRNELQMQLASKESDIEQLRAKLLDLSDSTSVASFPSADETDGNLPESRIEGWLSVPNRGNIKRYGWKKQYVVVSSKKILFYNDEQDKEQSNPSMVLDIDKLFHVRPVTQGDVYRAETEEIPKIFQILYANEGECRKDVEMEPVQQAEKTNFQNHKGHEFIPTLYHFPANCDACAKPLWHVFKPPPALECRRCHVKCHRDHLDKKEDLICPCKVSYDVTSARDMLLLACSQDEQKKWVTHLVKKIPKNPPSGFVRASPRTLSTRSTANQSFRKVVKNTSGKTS
# [6] = test system: Epidermal growth factor receptor (Homo sapiens), P00533 [UNDEFINED MUTATION]; assay: Selectivity interaction (KinomeScan (DiscoverX)) EUB0000045b EGFR; conditions: at 10 µM
# [7] = biological target: Ribosomal protein S6 kinase alpha-3 (Homo sapiens, UniProt P51812); assay: Selectivity interaction (KinomeScan (DiscoverX)) EUB0000655a RPS6KA3; conditions: at 10 µM
# [8] = biological target: Serine/threonine-protein kinase SIK3 (Homo sapiens) (UniProt Q9Y2K2); assay: Selectivity interaction (KinomeScan (DiscoverX)) EUB0000618a SIK3; conditions: at 10 µM
# Chain of Serine/threonine-protein kinase SIK3 (Homo sapiens) (Q9Y2K2 whole entry, looked up): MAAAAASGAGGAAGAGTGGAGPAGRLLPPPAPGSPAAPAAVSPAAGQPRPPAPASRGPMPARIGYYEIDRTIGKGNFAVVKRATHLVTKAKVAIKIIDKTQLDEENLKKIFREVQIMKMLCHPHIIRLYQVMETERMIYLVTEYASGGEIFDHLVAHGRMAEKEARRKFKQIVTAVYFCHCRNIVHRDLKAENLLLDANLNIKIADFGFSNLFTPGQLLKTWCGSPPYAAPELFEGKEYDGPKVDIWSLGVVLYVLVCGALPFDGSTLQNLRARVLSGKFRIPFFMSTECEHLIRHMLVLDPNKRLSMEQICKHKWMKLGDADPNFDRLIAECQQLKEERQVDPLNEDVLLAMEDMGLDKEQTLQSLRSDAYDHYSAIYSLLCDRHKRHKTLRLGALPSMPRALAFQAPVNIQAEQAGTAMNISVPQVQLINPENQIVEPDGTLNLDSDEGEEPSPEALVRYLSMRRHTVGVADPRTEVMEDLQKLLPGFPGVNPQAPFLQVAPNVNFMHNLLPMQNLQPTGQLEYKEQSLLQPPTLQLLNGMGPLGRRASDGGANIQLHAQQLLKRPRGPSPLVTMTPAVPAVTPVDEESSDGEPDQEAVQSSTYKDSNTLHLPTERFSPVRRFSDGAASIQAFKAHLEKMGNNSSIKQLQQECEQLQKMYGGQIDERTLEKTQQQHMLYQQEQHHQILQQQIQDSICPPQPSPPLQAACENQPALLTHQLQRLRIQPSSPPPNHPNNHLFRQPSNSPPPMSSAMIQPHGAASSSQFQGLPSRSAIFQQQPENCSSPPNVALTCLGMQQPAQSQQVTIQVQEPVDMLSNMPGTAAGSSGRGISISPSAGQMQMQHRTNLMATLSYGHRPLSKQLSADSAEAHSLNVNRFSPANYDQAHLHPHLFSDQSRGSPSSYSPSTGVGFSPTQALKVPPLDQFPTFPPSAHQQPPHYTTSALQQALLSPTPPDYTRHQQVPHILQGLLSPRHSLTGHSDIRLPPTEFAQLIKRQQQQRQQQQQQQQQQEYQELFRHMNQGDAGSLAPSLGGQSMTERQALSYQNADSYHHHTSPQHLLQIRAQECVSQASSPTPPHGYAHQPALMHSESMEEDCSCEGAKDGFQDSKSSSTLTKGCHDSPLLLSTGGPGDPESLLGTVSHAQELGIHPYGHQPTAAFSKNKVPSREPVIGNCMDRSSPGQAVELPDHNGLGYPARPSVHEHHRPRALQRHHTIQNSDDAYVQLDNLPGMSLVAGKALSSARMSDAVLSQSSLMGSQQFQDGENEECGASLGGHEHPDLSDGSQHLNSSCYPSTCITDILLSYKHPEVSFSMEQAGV
# [9] = biological target: Serine/threonine-protein kinase SIK3 (Homo sapiens) (UniProt Q9Y2K2); assay: Selectivity interaction (KinomeScan (DiscoverX)) EUB0000607a SIK3; conditions: at 10 µM
# [10] = biological target: T1, Eukaryotic translation initiation factor 2-alpha kinase 3 (Homo sapiens) (UniProt Q9NZJ5); assay: Selectivity interaction (Kinase panel (KiNativ target engagement assay in Jurkat cells)) EUB0001635a EIF2AK3; assay type: cell-based; conditions: Selectivity number of off-targets 0.0, Selectivity number of targets 233.0, Source Knowledge https://www.sciencedirect.com/science/article/pii/S2451945619300674?via%3Dihub, at 1 µM
# T1 sequence (whole entry): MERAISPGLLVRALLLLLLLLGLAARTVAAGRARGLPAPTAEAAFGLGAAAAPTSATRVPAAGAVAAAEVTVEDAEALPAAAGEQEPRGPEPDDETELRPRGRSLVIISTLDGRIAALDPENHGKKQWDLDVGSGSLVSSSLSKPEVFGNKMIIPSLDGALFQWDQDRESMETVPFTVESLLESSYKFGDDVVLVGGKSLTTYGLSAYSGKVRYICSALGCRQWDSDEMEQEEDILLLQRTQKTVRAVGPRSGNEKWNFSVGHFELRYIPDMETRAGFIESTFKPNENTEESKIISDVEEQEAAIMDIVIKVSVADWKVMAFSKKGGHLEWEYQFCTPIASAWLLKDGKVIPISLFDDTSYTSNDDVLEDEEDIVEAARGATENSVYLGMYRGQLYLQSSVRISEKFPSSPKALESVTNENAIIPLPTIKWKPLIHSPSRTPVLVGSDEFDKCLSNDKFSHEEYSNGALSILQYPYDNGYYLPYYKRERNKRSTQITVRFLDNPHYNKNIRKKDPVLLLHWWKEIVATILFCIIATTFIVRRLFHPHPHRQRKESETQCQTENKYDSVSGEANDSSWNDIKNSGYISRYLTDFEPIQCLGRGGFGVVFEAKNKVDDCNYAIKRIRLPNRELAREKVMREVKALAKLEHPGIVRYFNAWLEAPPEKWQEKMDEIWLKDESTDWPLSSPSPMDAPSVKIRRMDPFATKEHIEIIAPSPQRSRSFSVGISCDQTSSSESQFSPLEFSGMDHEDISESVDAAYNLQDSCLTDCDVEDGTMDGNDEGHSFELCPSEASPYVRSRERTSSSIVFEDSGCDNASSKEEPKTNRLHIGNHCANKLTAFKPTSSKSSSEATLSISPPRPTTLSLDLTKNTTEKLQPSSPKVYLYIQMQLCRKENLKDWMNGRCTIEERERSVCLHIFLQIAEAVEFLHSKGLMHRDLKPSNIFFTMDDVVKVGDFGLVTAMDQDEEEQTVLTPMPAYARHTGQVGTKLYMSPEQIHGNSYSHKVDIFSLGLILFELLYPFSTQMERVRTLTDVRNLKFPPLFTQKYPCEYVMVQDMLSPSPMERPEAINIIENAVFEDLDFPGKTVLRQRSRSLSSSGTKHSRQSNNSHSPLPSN
# [11] = biological target: T2, Ephrin type-A receptor 8 (Homo sapiens) (UniProt P29322); assay: Selectivity interaction (KinomeScan (DiscoverX)) EUB0000666a EPHA8; conditions: at 10 µM
# T2 sequence (whole entry): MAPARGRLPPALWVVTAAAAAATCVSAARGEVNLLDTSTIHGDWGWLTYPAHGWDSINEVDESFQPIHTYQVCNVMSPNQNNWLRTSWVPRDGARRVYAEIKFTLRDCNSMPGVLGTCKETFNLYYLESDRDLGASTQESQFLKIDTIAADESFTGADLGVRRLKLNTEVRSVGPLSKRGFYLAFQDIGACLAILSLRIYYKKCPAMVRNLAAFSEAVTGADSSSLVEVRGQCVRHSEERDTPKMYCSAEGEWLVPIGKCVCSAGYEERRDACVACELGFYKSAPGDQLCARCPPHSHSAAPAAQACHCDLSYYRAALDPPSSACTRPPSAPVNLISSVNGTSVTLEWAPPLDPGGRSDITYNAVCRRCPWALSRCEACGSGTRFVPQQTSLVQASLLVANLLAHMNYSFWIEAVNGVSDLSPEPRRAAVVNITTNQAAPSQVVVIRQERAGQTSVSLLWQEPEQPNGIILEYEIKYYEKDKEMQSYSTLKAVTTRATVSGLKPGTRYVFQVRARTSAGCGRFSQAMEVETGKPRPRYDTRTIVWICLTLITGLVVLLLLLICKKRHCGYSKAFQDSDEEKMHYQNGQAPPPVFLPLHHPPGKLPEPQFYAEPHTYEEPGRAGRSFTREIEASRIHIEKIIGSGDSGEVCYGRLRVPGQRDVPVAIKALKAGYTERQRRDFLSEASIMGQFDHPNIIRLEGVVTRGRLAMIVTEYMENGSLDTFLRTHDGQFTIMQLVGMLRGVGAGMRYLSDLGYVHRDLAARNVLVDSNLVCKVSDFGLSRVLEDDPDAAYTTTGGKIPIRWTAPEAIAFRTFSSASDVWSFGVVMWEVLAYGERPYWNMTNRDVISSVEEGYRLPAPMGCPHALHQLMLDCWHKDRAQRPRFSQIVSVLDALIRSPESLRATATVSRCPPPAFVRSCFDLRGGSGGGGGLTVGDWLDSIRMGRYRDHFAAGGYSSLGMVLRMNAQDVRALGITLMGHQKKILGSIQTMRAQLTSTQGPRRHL
# Chain of Adenosine receptor A2a (P29274 whole entry): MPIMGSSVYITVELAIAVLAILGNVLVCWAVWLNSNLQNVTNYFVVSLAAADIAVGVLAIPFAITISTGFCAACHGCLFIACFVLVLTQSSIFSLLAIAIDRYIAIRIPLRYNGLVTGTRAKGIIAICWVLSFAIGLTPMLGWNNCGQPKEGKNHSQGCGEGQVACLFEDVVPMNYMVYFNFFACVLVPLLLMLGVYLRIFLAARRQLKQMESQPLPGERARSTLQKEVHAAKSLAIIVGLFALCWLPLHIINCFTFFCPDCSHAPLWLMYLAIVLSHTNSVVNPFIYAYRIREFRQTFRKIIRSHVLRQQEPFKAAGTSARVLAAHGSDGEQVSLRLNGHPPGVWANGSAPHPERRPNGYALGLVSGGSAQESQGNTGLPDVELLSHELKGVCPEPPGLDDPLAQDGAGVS
compound,measurement,setting,value
Cc1cc([C@@H](C)Nc2ccccc2C(=O)O)c2nc(N3CCOCC3)cc(=O)n2c1 [AZD-6482],% of control,[1],94%
CCn1c(-c2nc3cc(C(=O)N4CCCC(N)C4)ccc3n2C)cc2ccccc21 (stereo not drawn),pXC50,Adenosine receptor A2a,< 4.5 M
COc1cc(N(C)c2ccnc3ccc(C(F)(F)F)cc23)cc(OC)c1OC,% binding,[2],68%
same,Kd,[3],6.5 µM
Nc1cnc(N2CCc3cc(S(=O)(=O)Nc4c(F)cc(Cl)cc4F)cc(N4CCCC4=O)c32)nc1 [TP-020n],% of control,[4],100%
C=CC(=O)Nc1cccc(C(=O)Nc2ccc(Nc3cc(-c4[nH]c(SC)nc4C)ccn3)cc2)c1,% of control,[5]; at 1 µM,104%
same,% of control,[5]; at 5 µM,80%
C=CC(=O)Nc1cc(-n2c(=O)ccc3cnc4ccc(-c5ccc(NS(C)(=O)=O)cc5)cc4c32)ccc1C,% of control,[6],62%
CN(C)CCOc1ccc(-c2nc(-c3ccncc3)c(-c3ccc4c(c3)CC/C4=N\O)[nH]2)cc1,% of control,[7],67%
O[C@H]1CC[C@H](Nc2ncc3nc(Nc4c(F)cc(F)cc4F)n([C@H]4CCOC4)c3n2)CC1,% of control,[8],22%
CNC(=O)Nc1ccc(-c2nc(N3CC4CCC(C3)O4)c3cnn(C4CCC5(CC4)OCCO5)c3n2)cc1,% of control,[9],35%
C=CC(=O)Nc1ccc(C(=O)Nc2[nH]nc3c2CN(C(=O)N[C@H](CN(C)C)c2ccccc2)C3(C)C)cc1,% of engagement,[10],-7.7%
O=C(NOC[C@H](O)CO)c1ccc(F)c(F)c1Nc1ccc(I)cc1F,% of control,[11],94%
